Measurements from a compilation of properties of binary mixtures (doi:10.1016/j.jct.2022.106789).

Assay: xn = mol fraction of the nth substance listed
Conditions: 100 kPa

CCCCCC[N+](CC)(CC)CC.O=S(=O)([N-]S(=O)(=O)C(F)(F)F)C(F)(F)F + CC(C)O
Conditions	speed of sound, 293.15 K [m/s]	speed of sound, 298.15 K [m/s]	speed of sound, 303.15 K [m/s]	speed of sound, 308.15 K [m/s]	speed of sound, 313.15 K [m/s]	viscosity, 293.15 K [mPa·s]	viscosity, 298.15 K [mPa·s]	viscosity, 303.15 K [mPa·s]	viscosity, 308.15 K [mPa·s]	viscosity, 313.15 K [mPa·s]
x2 = 0	1295.3	1282.7	1270.4	1258.3	1246.7	241	187	138	105	80.7
x2 = 0.096	–	1277.1	1264.8	1252.7	–	–	136	109	90	–
x2 = 0.2045	1282.6	–	1257.8	1246	1233.9	108	–	83.1	68.1	55.3
x2 = 0.3101	1273.6	–	–	1236.2	1224	74.1	–	–	49.3	41.4
x2 = 0.4056	1264	1250.9	1237.9	–	1213.3	55.3	50.3	44.3	–	30
x2 = 0.4987	1253.3	–	1226.8	–	1201.7	42.1	–	31.8	–	21.9
x2 = 0.5916	1240.8	1227.6	1214.5	–	–	30.7	25.3	20.9	–	–
x2 = 0.7088	1220.1	1206.5	1192.8	1179.4	1166	17.9	14.4	12.1	10.4	9.33
x2 = 0.8015	1198	1184	1170.3	–	1142.5	11.2	8.83	7.01	–	4.94
x2 = 0.9193	1167	1151.8	1136.7	–	1106.5	5.24	4.36	3.67	–	2.38
x2 = 0.9503	1161	–	–	–	–	–	–	–	–	–

CCCCCC[n+]1ccn(C)c1.O=S(=O)([O-])C(F)(F)F + CC(C)O
Conditions	speed of sound, 293.15 K [m/s]	speed of sound, 298.15 K [m/s]	speed of sound, 303.15 K [m/s]	speed of sound, 308.15 K [m/s]	speed of sound, 313.15 K [m/s]	viscosity, 293.15 K [mPa·s]	viscosity, 298.15 K [mPa·s]	viscosity, 303.15 K [mPa·s]	viscosity, 308.15 K [mPa·s]	viscosity, 313.15 K [mPa·s]
x2 = 0	1376.7	1364.8	1353.2	1342.1	1330.9	195	151	116	91.1	74
x2 = 0.1282	1366.5	–	1343	1331.5	1319.9	129	–	80	61.9	51.6
x2 = 0.2454	1353	–	1329.3	1316.1	1305.8	87.1	–	57.5	44.6	37.2
x2 = 0.3506	1338.3	1326	–	1301	1290.9	60	48.3	–	31.8	27
x2 = 0.469	1319.3	–	1294	1281.8	1270.2	37.8	–	27.2	21	18
x2 = 0.5728	1299.1	1286	1273.8	1260.3	1247.8	24.5	20.4	17.1	14.2	11.9
x2 = 0.6564	1280	1266.1	1253.7	1240.2	1227.4	16.1	13.6	11.3	9.6	8.4
x2 = 0.7574	1251.3	1237.2	1223.1	1209.3	1195.7	9.63	8.06	6.67	5.85	5.11
x2 = 0.8422	1221.4	1207.1	1192.8	1178.4	1163.3	5.86	4.82	4.21	3.59	3.13
x2 = 0.9231	–	1175.5	1159.6	1142.7	–	–	3.15	2.68	2.34	–

CC(C)O + CCCCCC[N+](CC)(CC)CC.O=S(=O)([N-]S(=O)(=O)C(F)(F)F)C(F)(F)F
x1 = 1
Conditions	speed of sound [m/s]	viscosity [mPa·s]
293.15 K	1155.7	2.42
313.15 K	1085.8	1.34

CC(C)O + CCCCCC[n+]1ccn(C)c1.O=S(=O)([O-])C(F)(F)F
x1 = 1
Conditions	speed of sound [m/s]	viscosity [mPa·s]
293.15 K	1155.7	2.42
303.15 K	1120.8	1.73
313.15 K	1085.8	1.34
